Results published in publication PMC12073785, “Design, Synthesis and Biological Evaluation of 3-Hydrazonoindolin-2-one Derivatives as Novel HIV-1 RNase H Inhibitors” (Molecules, 2025).

Tests used:
[1] = system: HIV-1 (strain IIIB); assay: Anti-HIV-1 (strain IIIB) activity in MT-4 cells, MTT assay; format: cell-based; conditions: for EC50: Human immunodeficiency virus 1, IIIB, MT4, protection of MT-4 cells against HIV-induced cytopathogenicity by 50%; for SI, selectivity index: ratio CC50/EC50, MT-4 cells
Method: (§1) The anti-HIV-1 (strain IIIB) activity evaluation in MT-4 cells was conducted using an optimized MTT assay. The cell lines were obtained from the laboratory (Prof. Erik De Clercq, Rega Institute for Medical Research, KU Leuven, Herestraat 49, Leuven, Belgium). Compounds were serially diluted (5-fold increments, starting from 10× concentration) and dispensed into 96-well plates (25 µL/well) via an automated Biomek 3000 workstation (Beckman Instruments, Fullerton, CA, USA). Parallel experimental groups included virus-infected (50 µL HIV inoculum, 100–300 TCID50) and mock-infected controls (50 µL culture medium). MT-4 cells were centrifuged (220× g, 5 min), resuspended to 6 × 10⁵ cells/mL, and seeded (50 µL/well). After a 5-day incubation, cell viability was quantified by measuring mitochondrial dehydrogenase-mediated MTT-to-formazan conversion using dual-wavelength spectrophotometry (540 nm primary, 690 nm reference). The 50% cytotoxic concentration (CC50) was calculated from triplicate median absorbance values, representing the compound concentration reducing mock-infected cell viability by 50%.

[2] = target: T1, HIV-1 RT-associated RNase H (Human immunodeficiency virus type 1 group M subtype B, UniProt P04585); assay: HIV-1 RT-associated RNase H inhibition (fluorescent RNA/DNA hybrid); format: biochemical; conditions: for IC50: HIV-1 RT wt, average of three independent determinations, read-out: IC50, concentration required to inhibit 50% of in vitro RNase H activity; for Fold increase in RNase H inhibitory potency compared to compound 6a: IC50 ratio versus 6a; for Fold increase in RNase H inhibitory potency compared to compound 6t: IC50 ratio versus 6t
T1 construct: HIV-1 group M subtype B heterodimeric reverse transcriptase (RT) was expressed and purified; made in house; host or cells: Escherichia coli strain M15, p6HRT-Prot expression vector
Method: The tested compounds were initially dissolved in dimethyl sulfoxide (DMSO) at a concentration of 50 mM and subsequently serially diluted (ratio 1:3). The compounds were tested as previously described.
Briefly, a reaction mixture containing 50 mM Tris-HCl buffer pH 7.8, 6 mM MgCl2, 1 mM dithiothreitol (DTT), 80 mM KCl, 0.25 μM hybrid RNA/DNA. 25 μM of RNA/DNA hybrid 5′-GAUCUGAGCCUGGAGCU-Fluorescin-3′ (HPLC, dry, QC: Mass Check), 5′-Dabcyl-AGCTCCCAGGCTCAGATC-3′ (HPLC, dry, QC: Mass Check), and increasing concentrations of inhibitors was diluted in DMSO. The activity of the RNase H function associated with HIV-1 RT was quantified by measuring the linear portion of the dose–response curve. The reaction mixture was incubated at 37 °C for 10 min with a Victor Nivo 5 multilabel plate reader (model 1420-051, PerkinElmer, Waltham, MA, USA), and fluorescence signals were recorded at excitation/emission wavelengths of 490/528 nm. Based on the obtained fluorescence data, the inhibitory concentration 50 (IC50) of the target compounds was calculated by interpolation on a dose–response curve. Results are reported as average and standard deviation of at least two independent replicates in triplicate.

[3] = Cytotoxicity in mock-infected MT-4 cells, MTT assay; format: cell-based; conditions: human, mock-infected MT-4 cells; reduction of normal uninfected MT-4 cell viability by 50%
Method: as §1

[4] = target: T1, HIV-1 RT-associated RNase H; assay: Kinetic analysis of RNase H inhibition, competition with RNA/DNA substrate; format: biochemical; conditions: for Mode of inhibition: Michaelis Menten and Lineweaver-Burk plots; for Ki: competition with RNA substrate
Excerpt: Based on the docking binding predictions, compound 6t and compound 11a were chosen for further characterization. To study the interaction between the chemical compounds and the enzyme in complex with the substrate, we evaluated the competition of compounds 6a and 11a with the RNA substrate (Figure 5). […] Given the results obtained, it is hypothesized that the binding between the inhibitor and the RT protein may modulate the interaction between the enzyme and the RNA substrate, resulting in an increased apparent KM and decreased apparent Vmax when increasing the concentration of the inhibitor.
Kinetic analysis of the DNA-polymerase independent RNase H activity was performed as already reported. Briefly, a reaction mixture containing 50 mM Tris-HCl buffer pH 7.8, 6 mM MgCl2, 1 mM DTT, 80 mM KCl, and increasing concentrations of hybrid RNA/DNA 5′-GAUCUGAGCCUGGGAGCU-Fluorescin-3′/5′-Dabcyl-AGCTCCCAGGCTCAGATC-3′ was incubated at 37 °C for 10 min with a Victor Nivo 5 multilabel plate reader (model 1420-051, PerkinElmer, Waltham, MA, USA), and fluorescence signals were recorded at excitation/emission wavelengths of 490/528 nm. Results were represented according to Michaelis Menten and Lineaweaver–Burke plots.

[5] = system: HIV-1 RT R448A; assay: RNase H inhibition with HIV-1 RT R448A mutant versus RT wt; format: biochemical; conditions: HIV-1 RT R448A versus RT wt
Excerpt: Furthermore, to validate the docking binding prediction of the compounds in the active site of the RT, and the interaction with amino acid residue R448, which was predicted to stabilize the binding of the compounds through a hydrogen bond, we evaluated the activity of compounds 6t and 11a in parallel against the RT wt enzyme and the HIV-1 RT R448A mutant (Figure 6). […] The results confirmed the importance of residue R448 in the binding of inhibitors and validated the predicted binding site to the enzyme; indeed, the less pronounced effect of R448A mutation on 11a inhibitory activity might be explained with the additional hydrogen bound predicted to form between 11a and amino acid Q475 (Figure 6).

In the case of `O=C1Nc2cc(Br)c(Br)cc2C1=NNc1c[nH]c(=O)[nH]c1=O` [Compound 11b, 5-(2-(5,6-Dibromo-2-oxoindolin-3-ylidene)hydrazineyl)pyrimidine-2,4(1H,3H)-dione], the EC50 [1] is reported as 44.9 µM, the “SI, selectivity index” value [1] is reported as 8 and the IC50 [2] is reported as 2.2 ± 0.2 µM. The “Fold increase in RNase H inhibitory potency compared to compound 6a” value [2] was 40 fold, the “Fold increase in RNase H inhibitory potency compared to compound 6t” value [2] was 4 fold and the CC50 at 5 days [3] was 349 µM.
With `O=C1Nc2ccc(Br)cc2C1=NNc1cc(=O)[nH]c(=O)[nH]1` [Compound 6d, 6-(2-(5-Bromo-2-oxoindolin-3-ylidene)hydrazineyl)pyrimidine-2,4(1H,3H)-dione] the IC50 [2] was > 100 µM.
In the case of `O=C1Nc2ccc(OC(F)(F)F)cc2C1=NNc1cc(=O)[nH]c(=O)[nH]1` [Compound 6f, 6-(2-(2-Oxo-5-(trifluoromethoxy)indolin-3-ylidene)hydrazineyl)pyrimidine-2,4(1H,3H)-dione], the IC50 [2] is reported as 8.94 ± 1.43 µM.
`O=C1Nc2cc(F)ccc2C1=NNc1cc(=O)[nH]c(=O)[nH]1` [Compound 6g, 6-(2-(6-Fluoro-2-oxoindolin-3-ylidene)hydrazineyl)pyrimidine-2,4(1H,3H)-dione] gave an IC50 [2] of 56.8 ± 15.9 µM.
Molecule `O=C1Nc2c(Br)cccc2C1=NNc1cc(=O)[nH]c(=O)[nH]1` [Compound 6m, 6-(2-(7-Bromo-2-oxoindolin-3-ylidene)hydrazineyl)pyrimidine-2,4(1H,3H)-dione] has an IC50 [2] of 43.8 ± 7.92 µM.
In the case of `O=C1Nc2c(F)cccc2C1=NNc1cc(=O)[nH]c(=O)[nH]1` [Compound 6k, 6-(2-(7-Fluoro-2-oxoindolin-3-ylidene)hydrazineyl)pyrimidine-2,4(1H,3H)-dione], the IC50 [2] is reported as > 100 µM.
In the case of `COc1ccc2c(c1)C(=NNc1cc(=O)[nH]c(=O)[nH]1)C(=O)N2` [Compound 6p, 6-(2-(5-Methoxy-2-oxoindolin-3-ylidene)hydrazineyl)pyrimidine-2,4(1H,3H)-dione], the IC50 [2] is reported as > 100 µM.
Molecule `O=C1Nc2cc(Br)ccc2C1=NNc1cc(=O)[nH]c(=O)[nH]1` [Compound 6i, 6-(2-(6-Bromo-2-oxoindolin-3-ylidene)hydrazineyl)pyrimidine-2,4(1H,3H)-dione] has an IC50 [2] of 23.6 ± 1.11 µM.
Work on `Cc1cc(C)c2c(c1)C(=NNc1cc(=O)[nH]c(=O)[nH]1)C(=O)N2` [Compound 6v, 6-(2-(5,7-Dimethyl-2-oxoindolin-3-ylidene)hydrazineyl)pyrimidine-2,4(1H,3H)-dione] yielded an IC50 [2] of 23.6 ± 3.89 µM.
For `O=C1Nc2cc(Cl)ccc2C1=NNc1cc(=O)[nH]c(=O)[nH]1` [Compound 6h, 6-(2-(6-Chloro-2-oxoindolin-3-ylidene)hydrazineyl)pyrimidine-2,4(1H,3H)-dione], the IC50 [2] was > 100 µM.
Work on `O=C1Nc2c(cccc2C(F)(F)F)C1=NNc1cc(=O)[nH]c(=O)[nH]1` [Compound 6o, 6-(2-(2-Oxo-7-(trifluoromethyl)indolin-3-ylidene)hydrazineyl)pyrimidine-2,4(1H,3H)-dione] yielded an IC50 [2] of 24.1 ± 7.02 µM.
`O=C1Nc2ccc(Cl)cc2C1=NNc1cc(=O)[nH]c(=O)[nH]1` [Compound 6c, 6-(2-(5-Chloro-2-oxoindolin-3-ylidene)hydrazineyl)pyrimidine-2,4(1H,3H)-dione] gave an IC50 [2] of 58.8 ± 2.4 µM.
Work on `O=C1Nc2cc(Br)c(Br)cc2C1=NNc1cc(=O)[nH]c(=O)[nH]1` [Compound 6u, 6-(2-(5,6-Dibromo-2-oxoindolin-3-ylidene)hydrazineyl)pyrimidine-2,4(1H,3H)-dione] yielded an IC50 [2] of 11.8 ± 0.81 µM.
Work on `O=C1Nc2cc(OC(F)(F)F)ccc2C1=NNc1cc(=O)[nH]c(=O)[nH]1` [Compound 6j, 6-(2-(2-Oxo-6-(trifluoromethoxy)indolin-3-ylidene)hydrazineyl)pyrimidine-2,4(1H,3H)-dione] yielded an IC50 [2] of 15.28 ± 0.01 µM.
With `O=C1Nc2cc(Cl)c(Cl)cc2C1=NNc1cc(=O)[nH]c(=O)[nH]1` [Compound 6t, 6-(2-(5,6-Dichloro-2-oxoindolin-3-ylidene)hydrazineyl)pyrimidine-2,4(1H,3H)-dione] the EC50 [1] was 110 µM, the “SI, selectivity index” value [1] was 3 and the Mode of inhibition [4] was “mixed model inhibitor”. For the same molecule, the Ki [4] was 2.31 µM, the “Vmax (apparent)” value ([4]; inhibitor 4 μM) was 124.2 and the “Vmax (apparent)” value ([4]; inhibitor 12 μM) was 104.6. The IC50 [2] was 7.85 ± 0.55 µM, the “Fold increase in RNase H inhibitory potency compared to compound 6a” value [2] was ~10 fold and the CC50 at 5 days [3] was 294 µM. The “Shift of the inhibition curve (loss of potency)” value [5] was “four-fold”.
For `O=C1Nc2cc(Cl)c(Cl)cc2C1=NNc1c[nH]c(=O)[nH]c1=O` [Compound 11a, 5-(2-(5,6-Dichloro-2-oxoindolin-3-ylidene)hydrazineyl)pyrimidine-2,4(1H,3H)-dione], the EC50 [1] was 39 µM, the “SI, selectivity index” value [1] was 10 and the Mode of inhibition [4] was “mixed model inhibitor”. For the same molecule, the Ki [4] was 0.55 µM, the “Vmax (apparent)” value ([4]; inhibitor 1 μM) was 105.8 and the “Vmax (apparent)” value ([4]; inhibitor 2 μM) was 98.24. The “Vmax (apparent)” value ([4]; inhibitor 4 μM) was 41.29, the IC50 [2] was 1.9 ± 0.01 µM and the “Fold increase in RNase H inhibitory potency compared to compound 6a” value [2] was 40 fold. For the same molecule, the “Fold increase in RNase H inhibitory potency compared to compound 6t” value [2] was 4 fold, the CC50 at 5 days [3] was 402 µM and the “Shift of the inhibition curve (loss of potency)” value [5] was “two-fold”.
Work on `O=C1Nc2c(Cl)cccc2C1=NNc1cc(=O)[nH]c(=O)[nH]1` [Compound 6l, 6-(2-(7-Chloro-2-oxoindolin-3-ylidene)hydrazineyl)pyrimidine-2,4(1H,3H)-dione] yielded an IC50 [2] of 46.6 ± 3.25 µM.
For `O=C1Nc2ccccc2C1=NNc1cc(=O)[nH]c(=O)[nH]1` [Compound 6b, 6-(2-(2-Oxoindolin-3-ylidene)hydrazineyl)pyrimidine-2,4(1H,3H)-dione], the IC50 [2] was > 100 µM.
In the case of `Cc1cccc2c1NC(=O)C2=NNc1cc(=O)[nH]c(=O)[nH]1` [Compound 6n, 6-(2-(7-Methyl-2-oxoindolin-3-ylidene)hydrazineyl)pyrimidine-2,4(1H,3H)-dione], the IC50 [2] is reported as 25.5 ± 1.37 µM.
Work on `O=C1Nc2cc(F)c(F)cc2C1=NNc1cc(=O)[nH]c(=O)[nH]1` [Compound 6s, 6-(2-(5,6-Difluoro-2-oxoindolin-3-ylidene)hydrazineyl)pyrimidine-2,4(1H,3H)-dione] yielded an IC50 [2] of 64.9 ± 0.77 µM.
In the case of `COc1cccc2c1NC(=O)C2=NNc1cc(=O)[nH]c(=O)[nH]1` [Compound 6r, 6-(2-(7-Methoxy-2-oxoindolin-3-ylidene)hydrazineyl)pyrimidine-2,4(1H,3H)-dione], the IC50 [2] is reported as > 100 µM.
For `Cc1ccc2c(c1)C(=NNc1cc(=O)[nH]c(=O)[nH]1)C(=O)N2` [Compound 6e, 6-(2-(5-Methyl-2-oxoindolin-3-ylidene)hydrazineyl)pyrimidine-2,4(1H,3H)-dione], the IC50 [2] was > 100 µM.
Molecule `O=C1Nc2ccc(F)cc2C1=NNc1cc(=O)[nH]c(=O)[nH]1` [Compound 6a, 6-(2-(5-Fluoro-2-oxoindolin-3-ylidene)hydrazineyl)pyrimidine-2,4(1H,3H)-dione] has an IC50 [2] of 81.2 ± 11.4 µM.
In the case of `COc1ccc2c(c1)NC(=O)C2=NNc1cc(=O)[nH]c(=O)[nH]1` [Compound 6q, 6-(2-(6-Methoxy-2-oxoindolin-3-ylidene)hydrazineyl)pyrimidine-2,4(1H,3H)-dione], the IC50 [2] is reported as > 100 µM.
